What was measured:
CD8+ T cells [1] = test: IFN-γ production (ELISA) by FL-9-primed CD8+ T cells in response to titrated peptide pulsed onto THP-1 cells; type: cell-based, human; conditions: fourteen days after first stimulation
Procedure: FIG. 24. […] A) Monocyte-derived DCs from HLA-A2+ healthy donors were pulsed with HuSPAS-1 peptide 4 (FL-9) and then incubated with autologous PBMC. Following another in vitro restimulation, T cell cultures were then assessed for their capacity to produce IFN-γ in response to titrated doses of peptide 4 (FL-9), pulsed onto the HLA-A2 expressing cell line THP-1. IFN-γ was assessed by ELISA on the cell supernatants in triplicate wells. […] (100,000 CD8+ T cells/well and 50,000 THP-1 cells/well). […] Responsiveness of the FL-9-reactive CD8+ T cell line was assessed by co-culturing 100,000 CD8+ T cells with titrated numbers of infected THP-1 cells.
Monocyte-derived DCs from HLA-A2+ healthy donors were pulsed with HuSPAS-1 peptide 4 (FL-9) and then incubated with autologous PBMC. Following another in vitro restimulation, T cell cultures were then assessed for their capacity to produce IFN-γ in response to titrated doses of peptide 4 (FL-9), pulsed onto the HLA-A2 expressing cell line THP-1. IFN-γ was assessed by ELISA on the cell supernatants in triplicate wells. […] Responsiveness of the FL-9-reactive CD8+ T cell line was assessed by co-culturing 100,000 CD8+ T cells with titrated numbers of infected THP-1 cells.

CD8+ T cells [2] = test: IFN-γ production (ELISA) by in vitro primed T cell cultures in response to peptide pulsed onto A221 cells; type: cell-based, human; conditions: HLA-A2+ healthy donors
Source text: (§1) FIG. 21: Strategy for the generation of human cytotoxic T lymphocytes (CTLs) specific for candidate human SPAS-1 peptides: In order to determine whether CD8+ T cells specific for human SPAS-1 peptides are present in the periphery of healthy individuals we used an in vitro priming strategy. Briefly, immature Myeloid Dendritic Cells (mDCs) were generated from culturing monocytes isolated from Peripheral Blood Mononuclear Cells (PBMCs) of a healthy HLA-A2+ donor for 5 days in GM-CSF and IL-4.
Following another in vitro restimulation, T cell cultures were assessed for their capacity to produce IFN-γ in response to the corresponding peptide, pulsed onto the HLA-A2 expressing cell line A221. IFN-γ was assessed by ELISA on the cell supernatants in triplicate wells.
as §1, with “In” for “FIG. 21: Strategy for the generation of human cytotoxic T lymphocytes (CTLs) specific for candidate human SPAS-1 peptides: In”

| Sequence | IFN-γ production in response to increasing doses of peptide (CD8+ T cells [1]) | immunogenicity: IFN-γ production in response to the corresponding peptide (CD8+ T cells [2]) |
| --- | --- | --- |
| FLTPLRNFL (H. sapiens) [P4] | specifically produced IFN-γ | Immunogenic |
| LLADELITV (H. sapiens) [P1] | not |  |

Source: US7704701B2, “Diagnosis of prostate cancer with SPAS-1 cancer antigen” (The Regents of the University of California, priority 2000, dated 2010)
